Assays:
ACHN = assay: In vitro anticancer activity against ACHN renal cancer cell line; format: functional; conditions: Homo sapiens
COLO 205 = assay: In vitro anticancer activity against COLO 205 colon cancer cell line; format: functional; conditions: Homo sapiens
DU-145 = assay: In vitro anticancer activity against DU-145 prostate cancer cell line; format: functional; conditions: Homo sapiens
HOP-62 [1] = assay: In vitro anticancer activity against HOP-62 non-smallcell lung cancer cell line; format: functional; conditions: Homo sapiens
Hs-578T = assay: In vitro anticancer activity against Hs 578.T breast cancer cell line; format: functional; conditions: Homo sapiens
IGROV-1 = assay: In vitro anticancer activity against IGROV1 ovarian cancer cell line; format: functional; conditions: Homo sapiens
LOX IMVI [2] = assay: In vitro anticancer activity against LOX IMVI melanoma cancer cell line; format: functional; conditions: Homo sapiens
MDA-MB-435 = assay: In vitro anticancer activity against MDA-MB-435 breast cancer cell line; format: functional; conditions: Homo sapiens
Malme-3M = assay: In vitro anticancer activity against MALME-3M melanoma cancer cell line; format: functional; conditions: Homo sapiens
NCI-H322M [3] = assay: In vitro anticancer activity against NCI-H322M non-small cell lung cancer cell line; Least sensitive cell; format: functional; conditions: Homo sapiens
PC-3 = assay: In vitro anticancer activity against PC-3 prostate cancer cell line; format: functional; conditions: Homo sapiens
RPMI-8226 [4] = assay: In vitro anticancer activity against RPMI-8226 leukemia cancer cell line; Most sensitive cell; format: functional; conditions: Homo sapiens
SNB-19 [5] = assay: In vitro anticancer activity against SNB-19 CNS cancer cell line; format: functional; conditions: Homo sapiens
SR [6] = assay: In vitro anticancer activity against SR leukemia cancer cell line; format: functional; conditions: Homo sapiens
SW-620 = assay: In vitro anticancer activity against SW-620 colon cancer cell line; format: functional; conditions: Homo sapiens
SK-OV-3 = assay: In vitro anticancer activity against SK-OV-3 ovarian cancer cell line; format: functional; conditions: Homo sapiens
TK-10 = assay: In vitro anticancer activity against TK-10 renal cancer cell line; format: functional; conditions: Homo sapiens
U-251 [7] = assay: In vitro anticancer activity against U-251 CNS cancer cell line; format: functional; conditions: Homo sapiens
[8] = Ratio of the least sensitive cell to the most sensitive cell; format: functional
HOP-62 [9] = assay: In vitro anticancer activity against HOP-62 non-smallcell lung cancer cell line; Least sensitive cell; format: functional; conditions: Homo sapiens
LOX IMVI [10] = assay: In vitro anticancer activity against LOX IMVI melanoma cancer cell line; Most sensitive cell; format: functional; conditions: Homo sapiens
RPMI-8226 [11] = assay: In vitro anticancer activity against RPMI-8226 Leukemia cancer cell line; format: functional; conditions: Homo sapiens
SR [12] = assay: In vitro anticancer activity against SR Leukemia cancer cell line; format: functional; conditions: Homo sapiens
NCI-H322M [13] = assay: In vitro anticancer activity against NCI-H322M non-small cell lung cancer cell line; format: functional; conditions: Homo sapiens
U-251 [14] = assay: In vitro anticancer activity against U-251 CNS cancer cell line; Least sensitive cell; format: functional; conditions: Homo sapiens
RPMI-8226 [15] = assay: In vitro anticancer activity against RPMI-8226 Leukemia cancer cell line; Most sensitive cell; format: functional; conditions: Homo sapiens
SNB-19 [16] = assay: In vitro anticancer activity against SNB-19 CNS cancer cell line; Leaset sensitive cell; format: functional; conditions: Homo sapiens
HOP-62 [17] = assay: In vitro anticancer activity against HOP-62 non-small cell lung cancer cell line; format: functional; conditions: Homo sapiens
RPMI-8226 [18] = assay: In vitro anticancer activity against RPMI-8226 leukemia cancer cell line; format: functional; conditions: Homo sapiens
SR [19] = assay: In vitro anticancer activity against SR leukemia cancer cell line; Most sensitive cell; format: functional; conditions: Homo sapiens
SNB-19 [20] = assay: In vitro anticancer activity against SNB-19 CNS cancer cell line; Least sensitive cell; format: functional; conditions: Homo sapiens
[21] = system: Panel leukemia (Carcinoma cell lines); assay: Compound was evaluated for in vitro anticancer activity against leukemia cell lines; format: functional, cell-based

| Compound | GI50 (ACHN) [nM] | GI50 (COLO 205) [nM] | GI50 (DU-145) [nM] | GI50 (HOP-62 [1]) [nM] | GI50 (Hs-578T) [nM] | GI50 (IGROV-1) [nM] | GI50 (LOX IMVI [2]) [nM] | GI50 (MDA-MB-435) [nM] | GI50 (Malme-3M) [nM] | GI50 (PC-3) [nM] | GI50 (SNB-19 [5]) [nM] | GI50 (SW-620) [nM] | GI50 (SK-OV-3) [nM] | GI50 (TK-10) [nM] | GI50 (U-251 [7]) [nM] | Ratio [8] | GI50 (SR [12]) [nM] | GI50 (NCI-H322M [13]) [nM] | other results |
| --- | --- | --- | --- | --- | --- | --- | --- | --- | --- | --- | --- | --- | --- | --- | --- | --- | --- | --- | --- |
| C=C1CC(COc2cccc3cccnc23)(c2ccccc2)OC1=O (stereo not given) | 1620 | 1510 | 3800 | 5130 | 1480 | 1550 | 1350 | 2140 | 1510 | 1580 | 12000 | 1070 | 9330 | 1660 | 2140 | 2.87 | – | – | GI50 (NCI-H322M [3]): 14800 nM; GI50 (RPMI-8226 [4]): 19.9 nM; GI50 (SR [6]): 245 nM |
| C=C1CC(COc2ccc3ccccc3c2)(c2ccccc2)OC1=O (stereo not given) | 4370 | 1950 | 12000 | – | 3890 | 1550 | – | 2880 | 3390 | 6460 | 10500 | 1910 | 7590 | 2880 | 2820 | 1.1 | 3310 | 12900 | GI50 (HOP-62 [9]): 18200 nM; GI50 (LOX IMVI [10]): 1450 nM; GI50 (RPMI-8226 [11]): 2240 nM |
| C=C1CC(COc2ccccc2)(c2ccccc2)OC1=O (stereo not given) | 1740 | 1740 | 15100 | 14800 | 11700 | 14100 | – | 7410 | 10500 | 2140 | 11200 | 1950 | – | 3160 | – | 1.06 | 3240 | 15500 | GI50 (LOX IMVI [10]): 1510 nM; GI50 (RPMI-8226 [11]): 1950 nM; GI50 (U-251 [14]): 17400 nM |
| C=C1CC(COc2ccc3cccc(O)c3n2)(c2ccccc2)OC1=O (stereo not given) | 1510 | 1780 | 11200 | 2140 | 2290 | 1660 | 1290 | 2000 | 1700 | 3090 | – | 1860 | 7080 | 7080 | 1820 | 3.01 | 724 | 8510 | GI50 (RPMI-8226 [15]): 14.1 nM; GI50 (SNB-19 [16]): 14500 nM |
| C=C1CC(COc2cccc3ccccc23)(c2ccccc2)OC1=O (stereo not given) | 4370 | 3160 | 11200 | – | 6920 | 1620 | 1350 | 1740 | 2880 | 4070 | 7760 | 1550 | 7410 | 10500 | 3550 | 1.84 | – | – | GI50 (HOP-62 [17]): 15500 nM; GI50 (NCI-H322M [3]): 15800 nM; GI50 (RPMI-8226 [18]): 2290 nM; GI50 (SR [19]): 229 nM |
| C=C1CC(COc2cccc3ccc(C)nc23)(c2ccccc2)OC1=O (stereo not given) | 1580 | 2240 | 5620 | 3240 | 2000 | 1780 | 1450 | 3020 | 1700 | 2950 | – | 1480 | 6760 | 2090 | 1780 | 3.23 | 776 | 12000 | GI50 (RPMI-8226 [15]): 10 nM; GI50 (SNB-19 [20]): 17000 nM |
| CISPLATIN | – | – | – | – | – | – | – | – | – | – | – | – | – | – | – | – | – | – | GI50 [21]: 4470 nM |
| CARBOPLATIN | – | – | – | – | – | – | – | – | – | – | – | – | – | – | – | – | – | – | GI50 [21]: 107000 nM |

Source: ChEMBL document CHEMBL1130608, “Synthesis and anticancer evaluation of certain gamma-aryloxymethyl-alpha-methylene-gamma-phenyl-gamma-butyrolactones” (1998)
